Key:
Type in all cases: in vivo
dopamine transporter [1] = biological target: T1, dopamine transporter (Homo sapiens, UniProt Q01959); assay: SPECT imaging of the dopamine transporter, ADHD subjects; conditions: six ADHD individuals, greater than 1 mCi intravenous
T1 construct: from tissue; host or cells: striatum in vivo (SPECT imaging of subjects)
Protocol: (§1) SPECT imaging of the dopamine transporter with 1231-PE2I is conducted on six subjects previously diagnosed with ADHD, and on control individuals without a diagnosis of ADHD. For each individual tested, greater than 1 mCi of 1231-PE2I is administered by intravenous injection at the onset of imaging. Images of the striatum are collected and analyzed by a radiologist to determine striatal binding potentials. In general, the methodology used for the SPECT imaging is the same as the methods described in Fischman et al., 1998, Synapse 29:125-41, which is incorporated herein by reference.

dopamine transporter [2] = biological target: dopamine transporter (Rattus norvegicus, UniProt P23977); assay: SPECT scan, transporter occupancy and binding parameters (Parkinson's Diagnosis)
dopamine transporter (Rattus norvegicus, UniProt P23977), sequence (P23977 whole entry): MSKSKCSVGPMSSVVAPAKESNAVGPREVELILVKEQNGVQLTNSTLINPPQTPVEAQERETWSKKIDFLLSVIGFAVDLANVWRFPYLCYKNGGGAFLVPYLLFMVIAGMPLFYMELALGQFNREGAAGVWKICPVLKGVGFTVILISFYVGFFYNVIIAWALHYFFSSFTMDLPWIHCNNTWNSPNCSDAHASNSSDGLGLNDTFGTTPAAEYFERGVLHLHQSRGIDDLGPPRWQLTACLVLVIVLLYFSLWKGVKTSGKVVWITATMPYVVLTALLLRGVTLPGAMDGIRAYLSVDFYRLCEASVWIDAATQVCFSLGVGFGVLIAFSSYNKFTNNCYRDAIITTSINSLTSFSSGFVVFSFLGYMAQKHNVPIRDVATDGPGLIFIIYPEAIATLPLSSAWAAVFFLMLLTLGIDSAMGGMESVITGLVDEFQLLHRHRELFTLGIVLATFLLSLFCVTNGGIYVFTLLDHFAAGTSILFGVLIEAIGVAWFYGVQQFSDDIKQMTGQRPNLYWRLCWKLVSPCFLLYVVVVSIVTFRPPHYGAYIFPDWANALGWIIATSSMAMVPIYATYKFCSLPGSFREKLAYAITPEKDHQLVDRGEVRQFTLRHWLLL
Protocol: A SPECT scan is performed. Strong evidence of different nonspecific binding in the striatal region, compared with the reference region is found, leading to bias in the estimate of dopaminergic denervation (range, 36%-94% severity) was found. […] The 6-hydroxydopamine lesion affected B(max) (control, 402±94 pmol/mL; lesioned, 117±120 pmol/mL; P=0.003) but not K app d (control, 331±63 pmol/mL; lesioned, 362±119 pmol/mL; P=0.63).

dopamine transporter [3] = biological target: T1, dopamine transporter; assay: SPECT imaging of the dopamine transporter, Lewy Body Dementia subjects; conditions: six Lewy Body Dementia individuals, greater than 1 mCi intravenous
Protocol: as §1, with “^123I-PE2I” for “1231-PE2I”, “Lewy Body Dementia,” for “ADHD,”, “Lewy Body Dementia.” for “ADHD.”, “29:125 41,” for “29:125-41,”

T1 sequence (Q01959 whole entry): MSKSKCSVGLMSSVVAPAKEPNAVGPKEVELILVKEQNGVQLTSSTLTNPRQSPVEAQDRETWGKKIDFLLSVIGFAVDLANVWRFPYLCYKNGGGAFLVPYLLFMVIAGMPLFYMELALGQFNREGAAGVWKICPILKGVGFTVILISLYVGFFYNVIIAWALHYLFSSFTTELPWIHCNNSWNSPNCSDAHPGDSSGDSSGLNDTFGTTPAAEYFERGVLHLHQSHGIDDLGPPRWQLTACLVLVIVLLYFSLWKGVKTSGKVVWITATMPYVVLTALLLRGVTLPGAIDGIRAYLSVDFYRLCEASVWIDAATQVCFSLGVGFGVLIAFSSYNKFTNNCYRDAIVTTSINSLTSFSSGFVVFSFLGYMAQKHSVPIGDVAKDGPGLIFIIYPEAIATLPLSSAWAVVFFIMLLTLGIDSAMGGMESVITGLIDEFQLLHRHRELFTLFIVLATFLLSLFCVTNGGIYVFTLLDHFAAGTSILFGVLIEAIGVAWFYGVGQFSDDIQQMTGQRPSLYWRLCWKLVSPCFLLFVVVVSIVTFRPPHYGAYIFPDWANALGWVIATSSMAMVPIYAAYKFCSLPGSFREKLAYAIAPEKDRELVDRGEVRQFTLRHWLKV

COC(=O)[C@@H]1C2CC[C@H](C[C@@H]1c1ccc(C)cc1)N2C/C=C/I [[^123I]-PE2I, [^123I] N-(3-iodoprop-2E-enyl)-2β-carbomethoxy-3β-(4-methylphenyl)-nortropane]
striatal binding potential versus expected levels for aged matched normal individuals (dopamine transporter [1]): reduced binding potential | B(max) (dopamine transporter [2]; 6-hydroxydopamine lesioned): 117 ± 120 pmol/mL | B(max) (dopamine transporter [2]; control): 402 ± 94 pmol/mL | striatal binding potential versus expected levels for aged matched normal individuals (dopamine transporter [3]): reduced binding potential

— patent publication US20140079634A1, “LABELED PE2I FORMULATION AND METHOD” (priority 2012, published 2014)
